Patent US9339469B2, “R(+)-N-methyl-propargyl-aminoindan” (Teva Pharmaceutical Industries, Ltd., priority 2011, dated 2016)

Legend:
[1] = in vivo; cited from earlier work
[2] = melt phase, 78 and 90° C. for 24, 72 or 137 hrs
Protocol: Samples intended to degrade under en inert atmosphere were flushed with nitrogen for 5 minutes before closing with a stepper.
The samples were introduced into a pre-heated oven and held at a constant temperature of 78 and 90° C. for 24, 72 or 137 hrs. After completion of the treatment the samples were refrigerated and analyzed.

formation of R(+)-N-methyl-PAI (summary of Table 1) [2]: no R(+)-N-methyl-PAI was formed
Structure (SMILES): C#CCN[C@@H]1CCc2ccccc21 [rasagiline, R(+)-N-propargyl-1-aminoindan]
absolute bioavailability [1]: about 36%
